# ChEMBL document CHEMBL1143641, “Structure-based design of 7-carbamate analogs of geldanamycin” (Bioorg Med Chem Lett, 2005)
# pIC50, pKd: −log10 of the molar value.
# Experiments:
# [1] = target: Heat shock protein HSP 90-alpha (Homo sapiens, UniProt P07900); assay: Binding affinity for human heat shock protein 90 in scintillation proximity assay
# [2] = test system: SK-BR-3; assay: Cytotoxicity against SKBr3 cells; type: functional, cell-based; conditions: Homo sapiens
Compound,pKd [1],pIC50 [2]
CO[C@H]1/C=C\C=C(/C)C(=O)NC2=CC(=O)C(NCCN(C)C)=C(C[C@@H](C)C[C@H](OC)[C@H](O)[C@@H](C)/C=C(\C)[C@@H]1OC(=O)NCCN(C)C)C2=O,< 4.00,6.34
CO[C@H]1/C=C\C=C(/C)C(=O)NC2=CC(=O)C(NCCF)=C(C[C@@H](C)C[C@H](OC)[C@H](O)[C@@H](C)/C=C(\C)[C@@H]1OC(=O)NN)C2=O,< 4.00,5.68
CO[C@H]1/C=C\C=C(/C)C(=O)NC2=CC(=O)C(N3CCC3)=C(C[C@@H](C)C[C@H](OC)[C@H](O)[C@@H](C)/C=C(\C)[C@@H]1OC(=O)NN)C2=O,< 4.00,6.28
CO[C@H]1/C=C\C=C(/C)C(=O)NC2=CC(=O)C(NCCN(C)C)=C(C[C@@H](C)C[C@H](OC)[C@H](O)[C@@H](C)/C=C(\C)[C@@H]1OC(=O)c1c[nH]cn1)C2=O,< 4.00,5.92
CO[C@H]1/C=C\C=C(/C)C(=O)NC2=CC(=O)C(NCCN(C)C)=C(C[C@@H](C)C[C@H](OC)[C@H](O)[C@@H](C)/C=C(\C)[C@@H]1OC(=O)NCCO)C2=O,< 4.00,6.41
CO[C@H]1C[C@H](C)CC2=C(NCCN(C)C)C(=O)C=C(NC(=O)/C(C)=C/C=C3/NC(=O)O[C@@H](/C(C)=C/[C@H](C)[C@H]1O)[C@H]3OC)C2=O,< 4.00,5.35
CO[C@H]1/C=C\C=C(/C)C(=O)NC2=CC(=O)C(NCCF)=C(C[C@@H](C)C[C@H](OC)[C@H](O)[C@@H](C)/C=C(\C)[C@@H]1OC(=O)NO)C2=O,< 4.00,5.82
CO[C@H]1/C=C\C=C(/C)C(=O)NC2=CC(=O)C(NCCN(C)C)=C(C[C@@H](C)C[C@H](OC)[C@H](O)[C@@H](C)/C=C(\C)[C@@H]1OC(=O)NO)C2=O,4.74,6.66
CO[C@H]1/C=C\C=C(/C)C(=O)NC2=CC(=O)C(N)=C(C[C@@H](C)C[C@H](OC)[C@H](O)[C@@H](C)/C=C(\C)[C@@H]1OC(N)=O)C2=O,7.00,–
CO[C@H]1/C=C\C=C(/C)C(=O)NC2=CC(=O)C(N3CCC3)=C(C[C@@H](C)C[C@H](OC)[C@H](O)[C@@H](C)/C=C(\C)[C@@H]1OC(N)=O)C2=O,5.85,–
CONC(=O)O[C@H]1/C(C)=C/[C@H](C)[C@@H](O)[C@@H](OC)C[C@H](C)CC2=C(NCCN(C)C)C(=O)C=C(NC(=O)/C(C)=C/C=C\[C@@H]1OC)C2=O,< 4.00,6.31
CO[C@H]1/C=C\C=C(/C)C(=O)NC2=CC(=O)C(NCCF)=C(C[C@@H](C)C[C@H](OC)[C@H](O)[C@@H](C)/C=C(\C)[C@@H]1OC(N)=O)C2=O,6.10,–
CO[C@H]1/C=C\C=C(/C)C(=O)NC2=CC(=O)C(NCCN(C)C)=C(C[C@@H](C)C[C@H](OC)[C@H](O)[C@@H](C)/C=C(\C)[C@@H]1OC(=O)NN)C2=O,< 4.00,6.85
CNC(=O)O[C@H]1/C(C)=C/[C@H](C)[C@@H](O)[C@@H](OC)C[C@H](C)CC2=C(NCCN(C)C)C(=O)C=C(NC(=O)/C(C)=C/C=C\[C@@H]1OC)C2=O,< 4.00,6.38
CO[C@H]1/C=C\C=C(/C)C(=O)NC2=CC(=O)C(N)=C(C[C@@H](C)C[C@H](OC)[C@H](O)[C@@H](C)/C=C(\C)[C@@H]1OC(=O)c1ccc[nH]1)C2=O,< 4.00,5.72
CO[C@H]1/C=C\C=C(/C)C(=O)NC2=CC(=O)C(N3CCC3)=C(C[C@@H](C)C[C@H](OC)[C@H](O)[C@@H](C)/C=C(\C)[C@@H]1OC(=O)NO)C2=O,< 4.00,6.19
CO[C@H]1/C=C\C=C(/C)C(=O)NC2=CC(=O)C(NCCN(C)C)=C(C[C@@H](C)C[C@H](OC)[C@H](O)[C@@H](C)/C=C(\C)[C@@H]1OC(=O)c1ccc[nH]1)C2=O,< 4.00,6.39
CO[C@H]1/C=C\C=C(/C)C(=O)NC2=CC(=O)C(NCCN(C)C)=C(C[C@@H](C)C[C@H](OC)[C@H](O)[C@@H](C)/C=C(\C)[C@@H]1OC(=O)NCC(N)=O)C2=O,< 4.00,5.85
CO[C@H]1/C=C\C=C(/C)C(=O)NC2=CC(=O)C(NCCN(C)C)=C(C[C@@H](C)C[C@H](OC)[C@H](O)[C@@H](C)/C=C(\C)[C@@H]1OC(=O)N(C)N)C2=O,< 4.00,5.60
